From patent US8486996B2, “Aroylfuranes and aroylthiophenes” (Basilea Pharmaceutica AG, priority 2006, dated 2013)
Where two headings read alike, the source gives them in different places.

Legend:
[1] = tested on: tumor cells; experiment: Hoechst 33342 nuclear staining (48 h read-out); format: cell-based
In short: (§1)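 Adherent cells pre-spread 24 h before dosing, suspension cells dosed at seeding; compounds at 0.001 μM-10 μM final, 48 h at culture conditions. Hoechst 33342 (2-5 μg/ml) added for 30 min, then fluorescence microscopy scoring of apoptotic nuclear fraction and apoptosis-specific morphology, reported as scores A-D.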

[2] = Hoechst 33342 nuclear staining (48 h read-out); format: cell-based
In short: as §1

[3] = tested on: tumor cells; experiment: MTS proliferation assay (72 h read-out); format: cell-based
In short: (§2)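 Tumour cells (1.5×10^3–10^4 per well) were seeded 24 h before compound addition, then exposed to 0.001–10 μM final compound for 72 h under culture conditions. MTS reagent was added for a further 3 h, absorbance was read at 492 nm, and results were binned into scores A–D.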

[4] = MTS proliferation assay (72 h read-out); format: cell-based; settings: MRC5 cells
In short: as §2

[5] = tested on: HeLa; experiment: Colony Forming Units (read-out 6 days), HeLa; format: cell-based, human; settings: colonies containing more than 30 cells, read-out: Colony Forming Units, score based on IC50, HeLa
Experimental: (§3) Appropriate numbers of cells (100-150 cells, dependent on the cell type) are being seeded out in 1 ml complete medium into 6-well plates and allowed to attach for 48 h. The compounds are added after 48 h in 500 μl solution. The concentrations are in the range of 0.001 μM-3 μM. Control plates receive the same volume of medium containing the appropriate amount of DMSO. The plates are incubated for 5-7 days at cell culture conditions and subsequently scored for growth of colonies (containing more than 30 cells) by using a microscope.

[6] = tested on: H460; experiment: Colony Forming Units (read-out 6 days), H460; format: cell-based, human; settings: colonies containing more than 30 cells, read-out: Colony Forming Units, score based on IC50, H460
Experimental: as §3

[7] = tested on: tumor cells; experiment: Mitochondrial membrane potential, JC-1 (read-out 48 h); format: cell-based; settings: JC-1, 48 h
In short: (§4)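 Tumor cells were treated with test compounds (adherent cells after 24 h of attachment, suspension cells immediately), medium holding up to 5% DMSO. After 48 h, JC-1 (2-5 μg/ml in added medium) was applied for 30 min. Fluorescence microscopy (FITC/TRITC filters) scored the fraction of cells with dissipated mitochondrial membrane potential as categories A-D.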

[8] = as above; format: cell-based; settings: PBL, JC-1, 48 h
In short: as §4

[9] = Homo sapiens, HeLa cells, read-out: Hoechst 33342 nuclear staining EC50, HeLa
[10] = Homo sapiens, Jurkat cells, read-out: Hoechst 33342 nuclear staining EC50, Jurkat
[11] = Jily cells, read-out: Hoechst 33342 nuclear staining EC50, Jily
[12] = Homo sapiens, MRC5 cells, read-out: Hoechst 33342 nuclear staining EC50, MRC5
[13] = PBL, read-out: Hoechst 33342 nuclear staining EC50, PBL
[14] = Homo sapiens, HT-1080, HT1080 cells, read-out: MTS proliferation assay IC50, HT1080
[15] = Homo sapiens, HeLa cells, read-out: MTS proliferation assay IC50, HeLa
[16] = Homo sapiens, Jurkat cells, read-out: MTS proliferation assay IC50, Jurkat
[17] = Jily cells, read-out: MTS proliferation assay IC50, Jily
[18] = Homo sapiens, HeLa cells, read-out: Mitochondrial membrane potential (read-out 48 h) HeLa
[19] = Homo sapiens, Jurkat cells, read-out: Mitochondrial membrane potential (read-out 48 h) Jurkat
[20] = Homo sapiens, MCF7 cells, read-out: Mitochondrial membrane potential (read-out 48 h) MCF7
[21] = Jily cells, read-out: Mitochondrial membrane potential (read-out 48 h) Jily
[22] = HeLa cells, read-out: Hoechst 33342 nuclear staining EC50, HeLa
[23] = Jurkat cells, read-out: Hoechst 33342 nuclear staining EC50, Jurkat
[24] = MRC5 cells, read-out: Hoechst 33342 nuclear staining EC50, MRC5
[25] = HT1080 cells, read-out: MTS proliferation assay IC50, HT1080
[26] = HeLa cells, read-out: MTS proliferation assay IC50, HeLa
[27] = Jurkat cells, read-out: MTS proliferation assay IC50, Jurkat
[28] = HeLa cells, read-out: Mitochondrial membrane potential (read-out 48 h) HeLa
[29] = Jurkat cells, read-out: Mitochondrial membrane potential (read-out 48 h) Jurkat
[30] = MCF7 cells, read-out: Mitochondrial membrane potential (read-out 48 h) MCF7

Compound	EC50 [1, 9]	EC50 [1, 10]	EC50 [1, 11]	EC50 [2, 12]	EC50 [2, 13]	IC50 [3, 14]	IC50 [3, 15]	IC50 [3, 16]	IC50 [3, 17]	EC50 [7, 18]	EC50 [7, 19]	EC50 [7, 20]	EC50 [7, 21]	EC50 [8]	EC50 [1, 22]	EC50 [1, 23]	EC50 [2, 24]	EC50 [7, 28]	EC50 [7, 29]	EC50 [7, 30]	further results
CCOc1ccccc1C(=O)c1oc2ccc(Cl)cc2c1N [Example 2, 3-Amino-5-chloro-2-(2-ethoxybenzoyl)-benzofuran]	10 to 100 nM	< 10 nM	10 to 100 nM	10 to 100 nM	> 1000 nM	10 to 100 nM	10 to 100 nM	< 10 nM	10 to 100 nM	10 to 100 nM	< 10 nM	100 to 1000 nM	10 to 100 nM	> 1000 nM							IC50 ([4]; Homo sapiens): 10 to 100 nM; IC50 ([5]; Homo sapiens, 144 h): 10 to 100 nM; IC50 ([6]; Homo sapiens, NCI-H460, 144 h): 10 to 100 nM
CCOc1ccc([N+](=O)[O-])cc1C(=O)c1oc2ccc(Cl)cc2c1N [Example 3, 3-Amino-5-chloro-2-(2-ethoxy-5-nitrobezoyl)-benzofuran]	< 10 nM	< 10 nM	< 10 nM	< 10 nM	> 1000 nM	< 10 nM	< 10 nM	< 10 nM	< 10 nM	< 10 nM	< 10 nM	10 to 100 nM	< 10 nM	> 1000 nM							IC50 ([4]; Homo sapiens): < 10 nM; IC50 ([5]; Homo sapiens, 144 h): < 10 nM; IC50 ([6]; Homo sapiens, NCI-H460, 144 h): < 10 nM
C=CCOc1ccc(OC)cc1C(=O)c1oc2ccc(Cl)cc2c1N [Example 4, 3-Amino-5-chloro-2-(2-allyloxy-5-methoxybenzoyl)-benzofuran]	10 to 100 nM	10 to 100 nM	10 to 100 nM	10 to 100 nM	> 1000 nM					10 to 100 nM	10 to 100 nM	10 to 100 nM	10 to 100 nM	> 1000 nM							IC50 ([5]; Homo sapiens, 144 h): 10 to 100 nM; IC50 ([6]; Homo sapiens, NCI-H460, 144 h): 10 to 100 nM
COCCOc1ccccc1C(=O)c1oc2ccc(Cl)cc2c1N [Example 6]			100 to 1000 nM		> 1000 nM				100 to 1000 nM				100 to 1000 nM	> 1000 nM	100 to 1000 nM	100 to 1000 nM	> 1000 nM	100 to 1000 nM	100 to 1000 nM	100 to 1000 nM	IC50 [3, 25]: > 1000 nM; IC50 [3, 26]: 100 to 1000 nM; IC50 [3, 27]: 100 to 1000 nM; IC50 [4]: > 1000 nM; IC50 [5]: 100 to 1000 nM; IC50 [6]: 100 to 1000 nM
COc1ccc2oc(C(=O)c3cc(F)ccc3N3CCCCC3)cc2c1 [Example 96]			100 to 1000 nM		> 1000 nM								10 to 100 nM	> 1000 nM	100 to 1000 nM	100 to 1000 nM	100 to 1000 nM	10 to 100 nM	10 to 100 nM	10 to 100 nM	IC50 [5]: 10 to 100 nM; IC50 [6]: 10 to 100 nM
CCOc1ccc(F)cc1C(=O)COc1ccc(Cl)cc1C#N [Example 143, ω-(4-Chloro-2-cyanophenoxy)-2-ethoxy-5-fluoroacetophenone]	10 to 100 nM	< 10 nM	< 10 nM	< 10 nM	> 1000 nM	10 to 100 nM	10 to 100 nM	10 to 100 nM	10 to 100 nM	10 to 100 nM	< 10 nM	10 to 100 nM		> 1000 nM							IC50 ([4]; Homo sapiens): 10 to 100 nM
COc1ccccc1C(=O)c1oc2ccc(Cl)cc2c1N [Ref B, reference compound]			100 to 1000 nM		> 1000 nM				100 to 1000 nM				100 to 1000 nM	100 to 1000 nM	> 1000 nM	100 to 1000 nM	> 1000 nM	> 1000 nM	100 to 1000 nM	> 1000 nM	IC50 [3, 25]: 100 to 1000 nM; IC50 [3, 26]: 100 to 1000 nM; IC50 [3, 27]: 100 to 1000 nM; IC50 [4]: 100 to 1000 nM
COc1ccc(OC)c(C(=O)c2oc3ccc(Cl)cc3c2O)c1 [Ref C, reference compound]			> 1000 nM		> 1000 nM				> 1000 nM				> 1000 nM	> 1000 nM	> 1000 nM	> 1000 nM	> 1000 nM	> 1000 nM	> 1000 nM	> 1000 nM	IC50 [3, 25]: > 1000 nM; IC50 [3, 26]: > 1000 nM; IC50 [3, 27]: > 1000 nM; IC50 [4]: > 1000 nM
COc1ccc(OC)c(C(=O)COc2ccc(Cl)cc2C#N)c1 [Ref D, reference compound]			100 to 1000 nM		> 1000 nM				100 to 1000 nM					> 1000 nM	> 1000 nM	100 to 1000 nM	> 1000 nM	> 1000 nM	100 to 1000 nM	> 1000 nM	IC50 [3, 25]: > 1000 nM; IC50 [3, 26]: 100 to 1000 nM; IC50 [3, 27]: 100 to 1000 nM; IC50 [4]: > 1000 nM
COc1ccc(OC)c(C(=O)c2oc3ccccc3c2O)c1 [Reference Example A, 2-(2,5-dimethoxybenzoyl)-3-hydroxybenzofuran, reference compound]	> 1000 nM	> 1000 nM	> 1000 nM	> 1000 nM	> 1000 nM	> 1000 nM	> 1000 nM	> 1000 nM	> 1000 nM	> 1000 nM	> 1000 nM	> 1000 nM	> 1000 nM	> 1000 nM							IC50 ([4]; Homo sapiens): > 1000 nM
